Drawing on patent US8188308B2 (Kyowa Hakko Bio Co., Ltd., priority 2006, dated 2012), this text covers Average width, Average particle diameter and Dissolution time for five compounds.

Where “and” joins values, the source holds several entries; their conditions need not be identical. Identical values can stand only once.

The conditions of series [1]: glutathione crystals. The method, then: The crystals were observed and photographed using a VH-8000 digital microscope (Keyence Corporation). The width of approximately 300 crystals was measured and calculations performed.
The conditions of series [2]: glutathione crystals; volume median diameter. The procedure:
(2) Average Particle Diameter
This is synonymous with volume median diameter, and it was measured using a laser diffraction and scattering particle diameter analyzer, the LMS-24 SK Laser Micron Sizer (Seishin Enterprise Co. Ltd.) and expressed as a cumulative 50% volume particle diameter.

For series [3] the following is noted: 12 g crystals in 200 ml ionized water, 37° C., 120 rpm, time to complete dissolution. The method, then: 12 g of each of the crystals was put in to 200 ml of the ionized water maintained at a temperature of 37° C., and the time from injection to complete dissolution of the crystals when agitated at 120 rpm was measured.

The compound `N[C@@H](CCC(=O)N[C@@H](CS)C(=O)NCC(=O)O)C(=O)O` [commercial product C] had an Average width in series [1] of 3 μm.
In the case of `N[C@@H](CCC(=O)N[C@@H](CS)C(=O)NCC(=O)O)C(=O)O` [Example 1, gamma-L-glutamyl-L-cysteinyl glycine], the Average particle diameter in series [2] was 52 μm. This compound registered an Average width in series [1] of 25 μm.
Take `N[C@@H](CCC(=O)N[C@@H](CS)C(=O)NCC(=O)O)C(=O)O` [Commercial product A]: in series [3], the Dissolution time was 124 s. This compound returned an Average particle diameter in series [2] of 9 μm. In series [1], this compound yielded an Average width of 3 μm.
On to `N[C@@H](CCC(=O)N[C@@H](CS)C(=O)NCC(=O)O)C(=O)O` [Example 2, gamma-L-glutamyl-L-cysteinyl glycine], for which the Average width in series [1] is 14 μm and 7 μm.
The compound `N[C@@H](CCC(=O)N[C@@H](CS)C(=O)NCC(=O)O)C(=O)O` [commercial product B] registered an Average width in series [1] of 3 μm.
